Measurements from US10738041B2, “Ferroportin inhibitors” (Vifor (International) AG, priority 2015, dated 2020).
“And” between values parts separate entries of the source, which are not always exact repeats. Equal values may be shown once. Where a name gives a salt, the structure may show the parent alone.

Columns and labels:
human Fpn-GFP fusion = molecular target: T1, human Fpn-GFP fusion (Homo sapiens, UniProt Q9NP59); experiment: Ferroportin Internalization and Degradation Assay (FACS); format: cell-based; settings: average of multiple measurements, Fpn-GFP MFI, HEK-293 cell line #354, FACS; for DC50: read-out: EC50 ferroportin internalization and degradation
T1 construct: expressed in transfected cells; host or cells: HEK-293 cell line #354 (derivative of HEK-293 Tet-ON Advanced, Clontech)
T1 sequence (Q9NP59 1-571): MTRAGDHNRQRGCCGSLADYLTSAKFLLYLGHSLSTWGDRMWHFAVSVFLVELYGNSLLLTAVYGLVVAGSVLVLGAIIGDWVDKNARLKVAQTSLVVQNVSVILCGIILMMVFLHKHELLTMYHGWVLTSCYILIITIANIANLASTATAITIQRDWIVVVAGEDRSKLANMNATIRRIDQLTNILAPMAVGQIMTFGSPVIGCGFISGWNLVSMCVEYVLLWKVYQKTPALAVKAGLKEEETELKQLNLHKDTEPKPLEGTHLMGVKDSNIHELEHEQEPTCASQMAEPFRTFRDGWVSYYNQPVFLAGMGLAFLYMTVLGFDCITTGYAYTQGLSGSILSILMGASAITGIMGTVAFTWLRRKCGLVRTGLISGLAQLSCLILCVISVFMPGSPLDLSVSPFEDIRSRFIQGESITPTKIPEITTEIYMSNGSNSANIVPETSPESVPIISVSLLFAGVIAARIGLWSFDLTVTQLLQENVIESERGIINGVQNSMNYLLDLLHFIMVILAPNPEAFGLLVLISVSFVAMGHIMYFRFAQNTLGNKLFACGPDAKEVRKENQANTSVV
Method: Growing HEK-293 #354 cells in doxycycline containing media induced expression of human Fpn-GFP fusion protein on the cell surface. […] Small molecular weight Fpn inhibitor compounds were tested for dose-dependent effects on the Fpn-GFP mean fluorescence intensity (MFI) on HEK-293 cell line #354, as described below. HEK #354 cells were harvested from ca. 80% confluent cultures, seeded at 0.6×10^6 (cells/ml in DMEM/F12 GlutaMAX™ medium (Invitrogen, Cat. 31331-028) containing 10% FBS (Clontech, Cat. 631106), 1% Penicillin-Streptomycin (Invitrogen, Cat. 15140-122), 200 μg/ml Hygromycin B (Invitrogen, Cat. 10687-010), Blasticidin 5 μg/ml, (Invitrogen, Cat. R210-01), 4 μg/ml doxycycline (Clontech, Cat. 631311), 50 μl per well of 384 well plates (Greiner; Cat. 781091) and grown at 37° C. with 5% CQ. After overnight incubation, 10 μl/well of dilution series of the test compounds were added in quadruplicates and plates were further incubated overnight at 37° C. with 5% CO2. Cells were washed once with FACS buffer (PBS containing 1% FBS, 2 mM EDTA and 0.05% NaN3), harvested in FACS buffer with 0.5 μg/ml propidium iodide (Sigma, Cat. P4864) and analyzed in a flow cytometer (CANTO™ II, BD Biosciences) equipped with high throughput sampler. Live HEK #354 cells were gated as propidium iodide negative population and analyzed for expression of Fpn-GFP.

ferroportin (Fpn) = molecular target: T2, ferroportin (Fpn) (Mus musculus, UniProt Q9JHI9); experiment: Hepcidin Internalization Assay (J774); format: cell-based; settings: average of multiple measurements; inhibition of TMR-hepcidin (25 nM) internalization into J774 cells; read-out: J774 IC50
T2 construct: host or cells: J774 mouse macrophage cell line, Fe(III)-NTA induced
T2 sequence (Q9JHI9 1-570): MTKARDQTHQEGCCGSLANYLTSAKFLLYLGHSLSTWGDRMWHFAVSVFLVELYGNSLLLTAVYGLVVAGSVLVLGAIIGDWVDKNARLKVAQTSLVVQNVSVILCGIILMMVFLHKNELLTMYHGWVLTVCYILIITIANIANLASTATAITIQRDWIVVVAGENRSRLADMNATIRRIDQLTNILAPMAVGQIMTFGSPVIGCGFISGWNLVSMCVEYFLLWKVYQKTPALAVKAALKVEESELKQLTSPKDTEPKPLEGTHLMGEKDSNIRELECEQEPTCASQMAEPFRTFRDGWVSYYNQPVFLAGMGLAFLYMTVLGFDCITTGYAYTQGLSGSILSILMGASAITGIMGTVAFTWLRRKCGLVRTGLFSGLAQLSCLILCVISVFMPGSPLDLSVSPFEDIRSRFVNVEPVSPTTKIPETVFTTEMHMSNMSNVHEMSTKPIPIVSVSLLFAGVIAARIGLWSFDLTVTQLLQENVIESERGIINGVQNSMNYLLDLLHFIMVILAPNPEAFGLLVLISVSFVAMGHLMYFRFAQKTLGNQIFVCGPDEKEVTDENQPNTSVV
How it was run: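 Mouse J774 macrophages, loaded overnight with 200 μM Fe(III)NTA, incubated 2 h at 37 °C with test compounds and TMR-labeled hepcidin. Cell-associated TMR fluorescence, a proxy for hepcidin binding to Fpn and internalization, quantified by automated imaging with Hoechst nuclear counterstain after fixation; IC50 from log(inhibitor) vs. response fit, triplicates.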

human Fpn = molecular target: T3, human Fpn (Homo sapiens, UniProt Q9NP59); experiment: Biophysical Ferroportin-Hepcidin Binding Assay (fluorescence polarization); settings: average of multiple measurements; 1 μM human Fpn, 20 nM TMR-hepcidin; read-out: FP IC50
T3 construct: FLAG (C); made in house; host or cells: Pichia pastoris
T3 sequence (Q9NP59 1-571): T1 sequence (Q9NP59 1-571)
How it was run: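 Purified human Fpn (C-terminal FLAG tag, expressed in Pichia pastoris) at 1 μM final was incubated with 20 nM TMR-hepcidin and serially diluted compounds in duplicate for 90 min at room temperature. Binding inhibition was read as a dose-dependent fall in FP (mP), calculated from parallel and perpendicular fluorescence.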

Row | Structure (SMILES) | DC50 (human Fpn-GFP fusion) | IC50 (ferroportin (Fpn)) | IC50 (human Fpn) | EC50 (human Fpn-GFP fusion)
1 | O=C(NCc1ccccc1)c1csc(CCNCc2nc3ccccc3[nH]2)n1 [Example 1] | 4.66 µM | 0.5 µM | 490 nM | 
2 | O=C(Cn1cc(C(=O)NCc2ncccc2F)cn1)NCCc1nc2ccccc2[nH]1 [Example 117] |  | 9.7 µM | 9000 nM | > 25 µM and < 50 µM
3 | O=C(NCc1ncccc1F)c1cccc(CCNCc2nc3ccccc3[nH]2)n1 [Example 133] | 20.7 µM | 4.56 µM | 2500 nM | 
4 | O=C(NCc1ncccc1F)c1csc(CCCNc2nc3ccccc3[nH]2)n1 [Example 135] |  | 3.41 µM | 36900 nM | 21.2 µM
5 | O=C(NCc1ncccc1F)c1cnn(C2CN(Cc3nc4ccccc4[nH]3)C2)c1 [Example 136] |  | > 10.5 µM | 6850 nM | 17.9 µM
6 | O=C(NCc1ncccc1F)c1csc(CCNCc2ccc3nc[nH]c3c2)n1 [Example 139] |  | 4.79 µM | 63100 nM | > 20 µM and < 50 µM
7 | O=C(NCc1ncccc1F)c1csc(CCNCc2cccc3nc[nH]c23)n1 [Example 140] |  | 3.73 µM | 6900 nM | > 20 µM and < 50 µM
8 | O=C(NCc1ncccc1F)c1cccc(CCNCCc2nc3ccccc3[nH]2)n1 [Example 146] | 25.3 µM | 3.11 µM | 1300 nM | 
9 | O=C(NCc1ncccc1F)c1cccc(CCN(CCc2nc3ccccc3[nH]2)CCc2nc3ccccc3[nH]2)n1 [Example 147] | 0.813 µM | 0.533 µM | 560 nM | 
10 | O=C(NCc1ncccc1F)c1csc(CCN(Cc2nc3ccccc3[nH]2)Cc2nc3ccccc3[nH]2)n1 [Example 166] |  | 1.12 µM | 370 nM | > 20 µM and < 50 µM
11 | O=C(NCC1CCCCN1)c1csc(CCNCc2nc3ccccc3[nH]2)n1 (stereo not shown) [Example 185] | 14.4 µM | 2.23 µM | 2900 nM | 
12 | O=C(NCc1ncccc1F)c1csc([C@H]2[C@@H]3CN(Cc4nc5ccccc5[nH]4)C[C@@H]32)n1 [Example Compound No. 213, 2-[(1R,5S,6S)-3-(1H-1,3-Benzodiazol-2-ylmethyl)-3-azabicyclo[3.1.0]hexan-6-yl]-N-[(3-fluoropyridin-2-yl)methyl]-1,3-thiazole-4-carboxamide Trihydrochloride] |  |  |  | 4.14 µM
